Results: US20240124483A1, “Methods for the Treatment of Fibrotic Disease” (SHY Therapeutics, LLC, priority 2021, published 2024)
Like-named read-outs stand apart in the source and are kept apart here.

Tests used:
[1] = biological target: Rho-A (Homo sapiens (Human), UniProt P61586); assay: Ras GTP Binding Domain Inhibition Assay, Rho-A
Procedure: A Ras Superfamily Activity Assay (as disclosed in International Application No. PCT/US2018/038613, filed Jun. 20, 2018, which is incorporated by reference in its entirety) was used as a specific assay to evaluate compounds against the following for the following Ras Superfamily proteins: KRas wild type, KRas Q61H mutant, KRas G12C mutant, KRas G12D mutant, Rac-1, and Rho-A.
Buffer-I: • 25 mM Tris-HCl, pH 7.4 • 27 mM KCl • 137 mM NaCl • 1 mM MgCl2 • 1 mM DTT
Buffer-II: • 50 mM Tris-HCl, pH 7.0 • 1 mM MgCl2 • 1 mM DTT
The small GTPases proteins: KRas wild type. KRas Q61H mutant, KRas G12C mutant, KRas G12D mutants, Rac-1, and Rho-A were expressed as His-tagged proteins. In addition, the Guanosine nucleotide Exchange Factor (GEF) Sos protein (residues 556-1049) was expressed as a His-tagged protein. In cells, the guanine nucleotide exchange factor Sos protein promotes activation of Ras proteins by stimulating an exchange of GDP for GTP. The inclusion of Sos to the Ras GTP binding domain inhibition assay may be considered as an alternative representation of physiological cellular conditions for evaluating the inhibitory activity of some of the tested small molecules.
For the assay, all purified small GTPases proteins were diluted in Buffer-I or Buffer-II to a final concentration of 10-30 μg/mL. 200 μL of each diluted protein was added to a nickel-coated 96-well plate and incubated overnight at 4° C. Then the protein solution was discarded and 200 μL of Buffer-I or Buffer-II was added to each well in the presence of 1% DMSO. Compounds to be tested were added to the protein-coated wells at final concentration of 20 μM, and incubated for 3 hours at room temperature with and without 10-30 μg/mL of Sos added to the final hour of the incubation. When performing IC50 measurements a serial dilution of all tested concentrations was added. Then Cy3-GTP or Cy5-GTP was added to each well to a final concentration of 100 nM. The labeled GTP was incubated for 45 minutes at room temperature. Following GTP incubation, wells were washed 3× in Buffer-I or Buffer-II and 200 μL of Buffer-I or Buffer-II was added to each well. Following washes, the amount of bound labeled-GTP was measured using a SpectraMax M3 (Molecular Devices).

[2] = test system: MAPK p38; assay: MAPK p38 Activation Assay in Panc-1 (western blot); assay type: cell-based, Human; parameters: key: Y = yes; N = No; conditions: at 10 μM
Procedure: (§1) Cell lines: Human tumor-derived pancreatic cancer cell line Panc-1 and mouse muscle myoblast C2C12 were purchased from American Type Culture Collection and grown in complete DMEM-High Glucose, supplemented with penicillin (100 U/mL), streptomycin (100 μg/mL), and 10% heat-inactivated FBS at 37° C. in a humidified incubator with 5% CO2.
(§2) Method: Cells were plated at 350000 cells/well density in a 12-well plate, allowed 3 hours to adhere to the plate, then starved in the appropriate medium in the presence of 0.5% FBS overnight. The small molecules to be tested were added to the cells in the final concentration of 10 μM in the presence of 0.3% DMSO for 3 hours incubation at 37° C. For IC50 value determination, serial dilutions of compounds were added to cells under the same conditions. Next, Panc-1 cells were stimulated with 10 ng/ml TGF-b1 for 1 hour, and C2C12 cells were stimulated with 10 ng/ml TGF-b1 for 20 minutes (recombinant human TGF-b1, R&D Systems). After stimulation cells were lysed with lysis buffer containing 1% Triton X-100, EDTA, and Halt™ Protease & Phosphatase Inhibitor Cocktail (Thermo Scientific). Protein concentration was assessed by BCA protein assay (Thermo Scientific). Phosphorylation level of MAPK p38 was determined by western blot.
(§3) Western blot protocol: Equal amounts of protein (15-50 μg) were separated by SDS-PAGE and transferred to nitrocellulose membranes (Invitrogen by Thermo Fisher Scientific). The membrane was stained with Ponceau S Stain (Boston BioProducts) to verify uniform protein loading. Membranes were blocked with 10% milk and phosphorylation levels of Smad2/Smad3 were assessed by incubating overnight at 4° C. with the following antibody: Phospho-p38 MAPK (Thr180/Tyr182), from Cell Signaling Technology. Then the membranes were incubated with HRP-conjugated secondary antibody (Jackson Immunoresearch, West Grove, PA). Bands were incubated in Amersham ECL Prime Western Blotting Detection Reagent (GE Healthcare) and visualized using the ChemiDoc MP imaging system (Bio-Rad).

[3] = test system: JNK; assay: JNK Activation Assay in Panc-1 (western blot); assay type: cell-based, Human; parameters: key: Y = yes; N = No; conditions: at 10 μM
Procedure: as §1
as §2, with “JNK” for “MAPK p38”
as §3, with “Smad2, Smad3, INK and p38” for “Smad2/Smad3”, “Phospho-SAPK/JNK (Thr183/Tyr185),” for “Phospho-p38 MAPK (Thr180/Tyr182),”

[4] = without SOS, read-out: Rho-A: % inh.
[5] = + SOS, read-out: Rho-A + SOS: % inh.

Rho-A, sequence (P61586 whole entry, species assumed, the tested form may be a part): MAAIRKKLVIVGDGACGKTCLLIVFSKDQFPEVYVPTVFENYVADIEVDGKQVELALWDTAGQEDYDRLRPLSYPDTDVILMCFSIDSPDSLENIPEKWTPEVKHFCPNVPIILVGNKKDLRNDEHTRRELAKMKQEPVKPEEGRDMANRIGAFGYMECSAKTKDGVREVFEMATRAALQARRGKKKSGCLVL

Row | SMILES | inhibition at 20 µM [1, 4] | Activation of MAPK p38 in PANC-1 [2] | Activation of JNK in PANC-1 [3] | inhibition at 20 µM [1, 5]
1 | COC1CCCN(c2nc(-c3nccn3C)nc3sc(-c4ccn(C(C)C)n4)c(C)c23)C1 (racemic) [Compound 14, rac-6-(1-Isopropyl-1H-pyrazol-3-yl)-4-(3-methoxypiperidin-1-yl)-5-methyl-2-(1-methyl-1H-imidazol-2-yl)thieno[2,3-d]pyrimidine] | 26 to 45% | Y | Y | 
2 | COc1cc(Cn2c(-c3nccn3C)nc3sc(-c4ccn(C(C)C)n4)c(C)c3c2=O)ncn1 [Compound 35, 6-(1-Isopropyl-1H-pyrazol-3-yl)-3-((6-methoxypyrimidin-4-yl)methyl)-5-methyl-2-(1-methyl-1H-imidazol-2-yl)thieno[2,3-d]pyrimidin-4(3H)-one] | 0% | N | N | 
3 | Cc1c(-c2ccn(C(C)C)n2)sc2nc(-c3nccn3C)nc(NCC3COCCN3C)c12 (racemic) [Compound 24, rac-6-(1-Isopropyl-1H-pyrazol-3-yl)-5-methyl-2-(1-methyl-1H-imidazol-2-yl)-N-((4-methylmorpholin-3-yl)methyl)thieno[2,3-d]pyrimidin-4-amine] | 46 to 75% | Y | Y | 
4 | COCCCn1c(-c2nccn2C)nc2sc(-c3ccn(C(C)C)n3)c(C)c2c1=O [Compound 31, 6-(1-Isopropyl-1H-pyrazol-3-yl)-3-(3-methoxypropyl)-5-methyl-2-(1-methyl-1H-imidazol-2-yl)thieno[2,3-d]pyrimidin-4(3H)-one] | 0% | N | N | 
5 | COc1cc(Nc2nc(-c3nccn3C)nc3sc(-c4ccn(C(C)C)n4)c(C)c23)ncn1 [Compound 19, 6-(1-Isopropyl-1H-pyrazol-3-yl)-N-(6-methoxypyrimidin-4-yl)-5-methyl-2-(1-methyl-1H-imidazol-2-yl)thieno[2,3-d]pyrimidin-4-amine] | 76 to 100% | Y | Y | 
6 | COc1cccc(-c2sc3nc(-c4nccn4C)nc(N[C@H]4C[C@H](OC)C4)c3c2C)c1F [Compound 42, 6-(2-Fluoro-3-methoxyphenyl)-N-((1r,3r)-3-methoxycyclobutyl)-5-methyl-2-(1-methyl-1H-imidazol-2-yl)thieno[2,3-d]pyrimidin-4-amine] | 46 to 75% | Y | Y | 
7 | COCCn1ccc(-c2sc3nc(-c4nccn4C)nc(N[C@@H]4CC[C@H](OC)C4)c3c2C)n1 (racemic) [Compound 39, rac-N-((1R,3S)-3-Methoxycyclopentyl)-6-(1-(2-methoxyethyl)-1H-pyrazol-3-yl)-5-methyl-2-(1-methyl-1H-imidazol-2-yl)thieno[2,3-d]pyrimidin-4-amine] | 46 to 75% | Y | Y | 
8 | COc1cc(-c2sc3nc(-c4nccn4C)nc(N[C@@H]4CC[C@H](OC)C4)c3c2-c2ccccc2)ccn1 (racemic) [Compound 44, rac-N-((1R,3S)-3-Methoxycyclopentyl)-6-(2-methoxypyridin-4-yl)-2-(1-methyl-1H-imidazol-2-yl)-5-phenylthieno[2,3-d]pyrimidin-4-amine] | 0% | N | Y | 
9 | CO[C@@H]1CC[C@H](Nc2nc(-c3nccn3C)nc3sc(-c4ccn(C(C)C)n4)c(-c4ccccc4)c23)C1 (single isomer, unassigned) [Compound 11] | 26 to 45% | Y | Y | 26 to 45%
10 | COCCNc1nc(-c2nccn2C)nc2sc(-c3cccc(OC)c3Cl)c(-c3ccccc3)c12 [Compound 9, 6-(2-Chloro-3-methoxyphenyl)-N-(2-methoxyethyl)-2-(1-methyl-1H-imidazol-2-yl)-5-phenylthieno[2,3-d]pyrimidin-4-amine] | 26 to 45% | Y | Y | 26 to 45%
11 | COCCCn1c(-c2nccn2C)nc2sc(-c3ccn(C(C)C)n3)c(-c3ccccc3)c2c1=O [Compound 36, 6-(1-Isopropyl-1H-pyrazol-3-yl)-3-(3-methoxypropyl)-2-(1-methyl-1H-imidazol-2-yl)-5-phenylthieno[2,3-d]pyrimidin-4(3H)-one] | 0% | Y | Y | 
12 | COCC1CN(c2nc(-c3nccn3C)nc3sc(-c4ccn(C(C)C)n4)c(C)c23)CCO1 (racemic) [Compound 15, 4-(6-(1-Isopropyl-1H-pyrazol-3-yl)-5-methyl-2-(1-methyl-1H-imidazol-2-yl)thieno[2,3-d]pyrimidin-4-yl)-2-(methoxymethyl)morpholine] | 76 to 100% | Y | Y | 
13 | COC1CCN(c2nc(-c3nccn3C)nc3sc(-c4ccn(C)n4)c(-c4ccccc4)c23)CC1 [Compound 6, 4-(4-Methoxypiperidin-1-yl)-2-(1-methyl-1H-imidazol-2-yl)-6-(1-methyl-1H-pyrazol-3-yl)-5-phenylthieno[2,3-d]pyrimidine] | 0% | N | Y | 0%
14 | Cc1c(-c2ccn(C(C)C)n2)sc2nc(-c3nccn3C)nc(NCC3CCCO3)c12 (racemic) [Compound 26, rac-6-(1-Isopropyl-1H-pyrazol-3-yl)-5-methyl-2-(1-methyl-1H-imidazol-2-yl)-N-((tetrahydrofuran-2-yl)methyl)thieno[2,3-d]pyrimidin-4-amine] | 76 to 100% | Y | Y | 
